# Patent US7723328B2, “Methods of facilitating cell survival using neurotrophin mimetics” (The University of North Carolina at Chapel Hill, priority 2005, dated 2010)
# “Also recorded” adds a separate entry of the source.
# How the values were obtained:
# [1] = tested on: TrkA-Fc; assay: NGF/TrkA-Fc binding by NGF ELISA; conditions: up to 10,000 nM compound
# Experimental: (§1) Briefly, 96-well plates were incubated with 0.1 pmol (at 1 nM) of p75/Fc or TrkA/Fc recombinant protein obtained from R&D System (Minneapolis, Minn., United States of America) overnight at 4° C. followed by incubation with blocking buffer for 1 hour at room temperature. […] Plates were then washed five times with Tris-buffered saline (TBS) containing 0.05% Tween-20 and incubated with anti-NGF rabbit polyclonal antibody overnight at 4° C. Following five washes with TBS, wells were incubated for 2.5 hours at room temperature with anti-rabbit IgG HRP conjugate and washed five times. 3,3′,5,5′-tetramethyl-benzidine substrate was added and the optical density measured at 450 nm.
# [2] = tested on: p75^NTR−/− cells; assay: Survival of p75NTR+/+ versus p75NTR-/- hippocampal neurons; assay type: cell-based, mouse; conditions: neurotrophins 1.8 nM, compounds 5 nM
# Experimental: (§2) Hippocampal neurons were prepared from E16-17 mouse embryos as previously described (Yang. T. et al. (2003) J Neurosci 23, 3353-3363). […] For studies employing p75^NTR+/+ and p75^NTR−/− neurons, mice carrying a mutation in exon 3 of the p75^NTR gene (Lee, K. F. et al. (1992) Cell 69, 737-749) were bred onto a B6 congenic background (>10 B6 backcrosses).
# (§3) After 48 hours in culture, cell survival was assessed as previously described (Longo, F. M., Manthorpe. M., Xie. Y. M., Varon, S. (1997) J Neurosci Res 48, 1-17) using a combination of standard morphological criteria along with visual determination of whether a given cell converted MTT to its blue formazan product. The number of surviving neurons was determined by counting the total number of cells in each well that were both morphologically intact and filed with blue product (Longo F. M., Manthorpe. M., Xie, Y. M., Varon, S. (1997) J Neurosci Res 48, 1-17). For each neurotrophin or compound concentration, duplicate wells were counted and the resulting values averaged. Activity of each compound was confirmed by blinded counts. Counts were normalized to survival achieved with 25 ng/ml BDNF or to baseline survival. Fitting of dose-responsive curves was performed with Sigmaplot obtained from SYSTAT Software Inc. (Richmond, Calif., United States of America).
# (§4) For all studies applying signaling inhibitors, p75^NTR antibodies or p75^NTR−/− neurons, survival was assessed at 48 hours.
# [3] = molecular target: T1, p75^NTR-Fc (Homo sapiens, UniProt P08138); assay: NGF/p75NTR-Fc binding by NGF ELISA, Gaddum/Schild fit
# T1 construct: purchased R&D Systems
# Experimental: as §1
# A regression analysis of NGF-p75^NTR binding in the presence of the p75-binding compounds was performed. The data was fit using the Nonlinear Regression module of Sigmaplot, to a modification of the Gaddum/Schild equation (adapted from Motulsky, H. J., and Christopoulos. A. (2003) A Practical Guide to Curve Fitting, 2nd edn. (San Diego, Calif., GraphPad Software, Inc.): […]
# [4] = molecular target: T2, p75^NTR (Homo sapiens, UniProt P08138); assay: proNGF binding to p75NTR by ELISA; conditions: 100 ng/ml proNGF
# T2 construct: purchased R&D Systems
# Experimental: as §1
# [5] = tested on: cortical and septal neurons; assay: Aβ-induced degeneration of cortical and septal neurons; assay type: cell-based
# [6] = tested on: hippocampal neurons; assay: Hippocampal neuron survival with p75NTR antisera (antibody inhibition); assay type: cell-based, mouse; conditions: antiserum 1:100, 48 h
# Experimental: as §2, §3, §4
# [7] = Preliminary studies of oral uptake and blood-brain barrier penetration; assay type: in vivo
# [8] = tested on: hippocampal neurons; assay: Hippocampal neuron survival with signaling pathway inhibitors; assay type: cell-based, mouse; conditions: BDNF/NGF 25 ng/ml, compounds 5 nM, 48 h
# Experimental: as §2, §3, §4
# [9] = tested on: AKT; assay: AKT activation western blot in hippocampal cultures; assay type: cell-based, mouse; conditions: 20 nM, relative to NGF
# Experimental: For assays of Trk, AKT, NFκB, and ERK activation, hippocampal neurons derived from E16-17 mice were cultured in poly-L-lysine coated six-well plates (Corning, Inc., Corning, N.Y., United States of America) in DMEM containing 10% FBS, followed by incubation in serum-free DMEM for 2 hours before addition of neurotrophins or compounds. At the indicated time points, neurons were harvested in lysis buffer consisting of: 20 mM Tris, pH 8.0, 137 mM NaCl, 1% Igepal CA-630, 10% glycerol, 1 mM PMSF, 10 μg/ml aprotinin, 1 μg/ml leupeptin, 500 μM orthovanadate (Zhou, J., Valletta, J. S., Grimes, M. L., Mobley, W. C. (1995) J Neurochem 65, 1146-1156).
# (§5) Lysates were centrifuged, the supernatant collected, and protein concentrations determined using the BCA Protein Assay Reagent obtained from Pierce (Rockford, Ill., United States of America). Western blots were performed as described previously (Yang, T. et al. (2003) J Neurosci 23, 3353-3363). Western blot signals were detected using the ECL Chemiluminescence System obtained by Amersham (Piscataway, N.J., United States of America) (Yang, T. et al. (2003) J Neurosci 23, 3353-3363).
# [10] = Age-related hair loss in middle-aged male mice; assay type: in vivo
# [11] = molecular target: T3, TrkA (Homo sapiens, UniProt P04629); assay: Trk Y490 phosphorylation western blot in TrkA-expressing 3T3 cells; assay type: cell-based
# T3 construct: expressed in transfected cells; host or cells: 3T3 cells (3T3-TrkA)
# Experimental: as §5
# [12] = tested on: E16-17 mouse hippocampal neurons; assay: Hippocampal neuron survival (morphology plus MTT conversion); assay type: cell-based
# Experimental: as §2, §3
# T1 sequence (P08138 with tags, fused parts or gaps limits assumed): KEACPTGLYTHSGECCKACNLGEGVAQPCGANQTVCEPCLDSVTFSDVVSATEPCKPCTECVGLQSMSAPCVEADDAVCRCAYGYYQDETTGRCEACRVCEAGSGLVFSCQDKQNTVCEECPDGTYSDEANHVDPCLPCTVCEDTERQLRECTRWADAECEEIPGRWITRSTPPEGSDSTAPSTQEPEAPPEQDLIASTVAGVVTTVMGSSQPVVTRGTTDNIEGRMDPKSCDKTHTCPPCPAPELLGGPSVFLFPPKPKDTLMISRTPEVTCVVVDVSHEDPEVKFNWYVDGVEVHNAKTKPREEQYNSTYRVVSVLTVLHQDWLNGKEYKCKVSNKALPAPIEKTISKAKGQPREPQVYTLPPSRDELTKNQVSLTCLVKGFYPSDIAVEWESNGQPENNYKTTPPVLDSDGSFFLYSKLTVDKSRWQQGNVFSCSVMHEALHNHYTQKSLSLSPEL
# T2 sequence (P08138 with tags, fused parts or gaps limits assumed): as above
# T3 sequence (P04629 33-796, species assumed): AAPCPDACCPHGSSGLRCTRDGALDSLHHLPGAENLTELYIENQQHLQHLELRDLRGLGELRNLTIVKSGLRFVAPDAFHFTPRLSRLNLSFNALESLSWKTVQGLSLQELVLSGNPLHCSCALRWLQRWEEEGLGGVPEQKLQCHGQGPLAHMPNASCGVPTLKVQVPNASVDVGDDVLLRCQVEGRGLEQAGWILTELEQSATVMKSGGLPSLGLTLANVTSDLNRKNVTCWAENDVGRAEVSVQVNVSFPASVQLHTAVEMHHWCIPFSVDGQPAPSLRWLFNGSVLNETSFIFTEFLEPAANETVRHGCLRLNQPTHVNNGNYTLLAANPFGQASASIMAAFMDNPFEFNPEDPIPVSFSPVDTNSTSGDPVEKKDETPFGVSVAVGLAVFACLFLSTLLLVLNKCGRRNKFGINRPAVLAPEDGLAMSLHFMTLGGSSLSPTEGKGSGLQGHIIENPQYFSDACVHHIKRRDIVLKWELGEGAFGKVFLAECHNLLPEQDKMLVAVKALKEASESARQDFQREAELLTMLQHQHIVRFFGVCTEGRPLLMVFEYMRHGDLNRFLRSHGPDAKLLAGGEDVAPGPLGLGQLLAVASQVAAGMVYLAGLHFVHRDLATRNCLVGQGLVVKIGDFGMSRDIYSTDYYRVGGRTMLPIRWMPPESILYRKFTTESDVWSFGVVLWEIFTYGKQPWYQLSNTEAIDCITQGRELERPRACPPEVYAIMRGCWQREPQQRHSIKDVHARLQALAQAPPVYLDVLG
compound,measurement,setting,value
CCC(C)C(N)C(=O)NCCN1CCOCC1 (stereo not shown) [Compound 4],effect on NGF binding to TrkA-Fc,[1],"did not affect; also recorded: no compound effects up to 10,000 nM"
same,effect of p75NTR-deficiency on promotion of neuron survival by the substance,[2],completely inhibits
same,A2 relative to EC50 of biologic effect,[3],nearly four orders of magnitude greater
same,compound concentration at which binding curve differs from 0 nM curve (P<0.0001),[3]; ANOVA with post-hoc Bonferroni/Dunn,≥ 500 nM
same,Schild coefficient,[3]; Gaddum-Schild fit,0.58 +/−0.04
same,shift of the NGF/p75NTR-Fc binding curve,[3]; increasing compound concentrations,significantly to the right
same,proNGF ELISA signal versus proNGF alone,[4]; P<0.01,significantly less than proNGF alone
same,decrement of proNGF binding to p75NTR,"[4]; at the highest concentration (range 1500 nM to 10,000 nM)",approximately 30%
same,block of Aβ-induced degeneration of cortical and septal neurons,[5],block Aβ-induced degeneration of cortical and septal neurons
same,effect of Ab 9651 on promotion of neuron survival by the substance,[6],completely blocked; also recorded: completely inhibits
same,survival versus CM in the presence of Ab 9651,[6],not significant
same,blood-brain barrier penetration,[7],blood-brain barrier penetration
same,oral uptake,[7],significant oral uptake
same,effect of PD98059 (ERK inhibitor) on survival promoted by the substance,[8]; PD98059 50 μM,no significant decrease
same,effect of SN50 (NFκB translocation inhibitor) on survival promoted by the substance,[8]; SN50 2.5 μg/ml,significantly reduced
same,onset of AKT activation,[9],slower than that of NGF
same,"mice with hair loss, studies taken together","[10]; both studies pooled, p 0.001 Fisher's Exact test vs vehicle",0 of 14
same,mice with hair loss,"[10]; follow up study, middle-aged male mice, 2-month time point",0 of 9
same,mice with age-related hair loss,"[10]; three-month toxicology trial, male mice",0 of 5
same,TrkA activation (Trk Y490 phosphorylation),[11],no detectable activation
same,additive effect on survival with NGF,[12]; 5 nM compound along with 50 ng/ml NGF,no additive effect on survival
same,EC50,"[12]; Mus musculus, Hippocampal neuron, dose-response, FIG. 2b, read-out: EC50 of survival-promoting (biologic) effect",~0.15 nM
